pIC50: −log10 of the molar value. Active and inactive are the calls of the source. The rule behind the calls is not given here.
Experiments:
Mus musculus [1] = assay: Inhibition of anti-CD3 antibody-induced IL2 production in Balb/c mouse dosed intravenously 5 mins before anti-CD3 antibody injection and measured 2 hrs post-challenge by ELISA; type: functional, organism-based
Mus musculus [2] = assay: Inhibition of anti-CD3 antibody-induced IL4 production in Balb/c mouse dosed intravenously 5 mins before anti-CD3 antibody injection and measured 2 hrs post-challenge by ELISA; type: functional, organism-based
[3] = molecular target: T1, Dual specificity mitogen-activated protein kinase kinase 7 (Homo sapiens, UniProt O14733); assay: Inhibition of GST-tagged human MKK7 expressed in Escherichia coli (BL21(DE3) pLysS) co-expressing human MEKK catalytic domain using biotinylated and GST-tagged rat GST-KN-SAPKalpha substrate incubated for 1 hr by time-resolved fluorescence based assay
T1 sequence (O14733 whole entry): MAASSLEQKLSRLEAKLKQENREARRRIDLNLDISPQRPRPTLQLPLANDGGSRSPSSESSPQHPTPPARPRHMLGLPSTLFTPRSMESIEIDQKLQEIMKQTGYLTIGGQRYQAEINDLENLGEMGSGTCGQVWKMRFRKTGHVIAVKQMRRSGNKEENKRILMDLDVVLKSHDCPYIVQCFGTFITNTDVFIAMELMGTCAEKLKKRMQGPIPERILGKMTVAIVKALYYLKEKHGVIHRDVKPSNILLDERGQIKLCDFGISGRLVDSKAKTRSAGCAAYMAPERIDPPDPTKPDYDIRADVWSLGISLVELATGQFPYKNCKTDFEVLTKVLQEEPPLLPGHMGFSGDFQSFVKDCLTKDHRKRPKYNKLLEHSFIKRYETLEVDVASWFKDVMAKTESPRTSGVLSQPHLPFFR

Mus musculus [4] = assay: Inhibition of anti-CD3 antibody-induced IFNgamma production in Balb/c mouse dosed intravenously 5 mins before anti-CD3 antibody injection and measured 2 hrs post-challenge by ELISA; type: functional, organism-based

| pIC50 [3] | Compound | Activity (Mus musculus [1]) | Activity (Mus musculus [2]) | Activity (Mus musculus [4]) |
| --- | --- | --- | --- | --- |
| ≥ 6.00 | Oc1ccc2[nH]c3ncnc(-c4ccccc4)c3c2c1 | Active | Active | Active |
| – | COc1ccc(-c2ncnc3[nH]c4ccc(C#N)cc4c23)cc1 | Active | Active | Active |
| ≥ 6.00 | NC(=O)c1ccc2[nH]c3nc(N)nc(-c4ccccc4)c3c2c1 | Active | Active | Active |
| – | COc1ccc(-c2ncnc3[nH]c4ccc(OC)cc4c23)cc1 | Active | Active | Active |
| – | CN(C)c1ccc(-c2ncnc3[nH]c4ccc(C#N)cc4c23)cc1 | Active | Active | Active |
| – | N#Cc1ccc2[nH]c3ncnc(-c4cccc(N)c4)c3c2c1 | Active | Active | Active |
| ≥ 6.00 | COc1ccc(-c2ncnc3[nH]c4ccc(O)cc4c23)cc1 | Active | Active | Active |
| ≥ 6.00 | NC(=O)c1ccc2[nH]c3ncnc(-c4ccccc4)c3c2c1 | Active | Active | Active |
| – | N#Cc1ccc2[nH]c3ncnc(-c4ccccc4)c3c2c1 | Active | Active | Active |
| – | N#Cc1ccc2[nH]c3nc(N)nc(-c4ccccc4)c3c2c1 | Active | Active | Active |
| ≥ 6.00 | NC(=O)c1ccc2[nH]c3ncnc(-c4ccc(F)cc4)c3c2c1 | Active | Active | Active |
| ≥ 6.00 | Oc1ccc2[nH]c3ncnc(-c4ccc(F)cc4)c3c2c1 | Active | Active | Active |
| – | COc1ccc(-c2ncnc3[nH]c4ccc(C(N)=O)cc4c23)cc1 | Active | Active | Active |
| – | N#Cc1ccc2[nH]c3ncnc(-c4ccc(F)cc4)c3c2c1 | Active | Active | Active |
| – | NC(=O)c1ccc2[nH]c3ncnc(-c4cccc(N)c4)c3c2c1 | Active | Active | Active |
| – | COc1ccc2[nH]c3ncnc(-c4ccccc4)c3c2c1 | Active | Active | Active |
| 6.00 | CN(C)c1ccc(-c2ncnc3[nH]c4ccc(C(N)=O)cc4c23)cc1 | Active | Active | Active |

— ChEMBL document CHEMBL3714713, “4-phenyl-pyrimido [4,5-b] indole derivatives” (2004)
